# In patent US8058290B2, “7-substituted aza-indazoles, compositions containing same, production method and use thereof” (Aventis Pharma S.A., priority 2005, dated 2011):
# pIC50: −log10 of the molar value. Counter-ions that a name gives are not always drawn.
# Tests used:
# Type in all cases: biochemical
# [1] = target: T1, human KDR enzyme (Homo sapiens, UniProt P35968); experiment: KDR substrate phosphorylation assay (scintillation, 96-well plate); conditions: cytoplasmic domain of human KDR as GST fusion, 2 μM cold ATP, 1 hour at 37° C.
# T1 construct: The cytoplasmic domain of the human KDR enzyme was cloned in the form of a GST fusion; GST; made in house; host or cells: SF21 insect cells (baculovirus, pFastBac)
# Procedure: 2. KDR The inhibitory effect of the compounds is determined in an assay of substrate phosphorylation by the KDR enzyme in vitro using a scintillation technique (96-well plate, NEN). The cytoplasmic domain of the human KDR enzyme was cloned in the form of a GST fusion into the baculovirus expression vector pFastBac. The protein was expressed in SF21 cells and purified to approximately 60% homogeneity. The kinase activity of KDR is measured in 20 mM MOPS, 10 mM MgCl2, 10 mM MnCl2, 1 mM DTT, 2.5 mM EGTA and 10 mM b-glycerophosphate, pH=7.2, in the presence of 10 mM MgCl2, 100 μM Na3VO4 and 1 mM NaF. 10 μl of the compound are added to 70 μl of kinase buffer containing 100 ng of KDR enzyme at 4° C. The reaction is initiated by adding 20 μl of solution containing 2 μg of substrate (SH2-SH3 fragment of PLCγ expressed in the form of a GST fusion protein), 2 μCi γ^33P[ATP] and 2 μM cold ATP. After incubation for 1 hour at 37° C., the reaction is stopped by adding 1 volume (100 μl) of 200 mM EDTA. The incubation buffer is removed, and the wells are washed three times with 300 μl of PBS. The radioactivity is measured in each well using a Top Count NXT radioactivity counter (Packard). The background noise is determined by measuring the radioactivity in four different wells containing radioactive ATP and the substrate alone. A total activity control is measured in four different wells containing all the reactants (γ^33P-[ATP], KDR and PLCγ substrate) but in the absence of compound. The inhibition of the KDR activity with the compound of the invention is expressed as percentage inhibition of the control activity determined in the absence of compound. The compound SU5614 (Calbiochem) (1 μM) is included in each plate as an inhibition control.
# [2] = target: T2, human Tie2 (Homo sapiens, UniProt Q02763); experiment: Tie2 PLC phosphorylation assay (GST-Tie2, FlashPlate); conditions: GST-Tie2 intracellular domain, 2 μM cold ATP, 1 hour at 37° C.; read-out: IC 50 Tie2
# T2 construct: corresponding to the intracellular domain amino acids 776-1124 was generated by PCR; made in house; host or cells: baculovirus expression (pFastBacGT)
# Procedure: The human Tie2 coding sequence corresponding to the intracellular domain amino acids 776-1124 was generated by PCR using the cDNA isolated from human placenta as model. This sequence was introduced into a baculovirus expression vector pFastBacGT in the form of a GST fusion protein.
# The inhibitory effect of the molecules is determined in an assay of PLC phosphorylation by Tie2 in the presence of GST-Tie2 purified to approximately 80% of homogeneity. The substrate is composed of the SH2-SH3 fragments of PLC expressed in the form of a GST fusion protein.
# The kinase activity of Tie2 is measured in a 20 mM MOPS buffer, pH 7.2, containing 10 mM MgCl2, 10 mM MnCl2, 1 mM DTT and 10 mM of glycerophosphate. In a FlashPlate 96-well plate kept on ice, a reaction mixture composed of 70 μl of kinase buffer containing 100 ng of GST-Tie2 enzyme is deposited per well. 10 μl of the test molecule diluted, in DMSO, to a concentration of at most 10% are subsequently added. For a given concentration, each measurement is carried out in quadruplicate. The reaction is initiated by adding 20 μl of solution containing 2 μg of GST-PLC, 2 μM of cold ATP and 1 μCi of ^33P[ATP]. After incubation for 1 hour at 37° C., the reaction is stopped by adding 1 volume (100 μl) of EDTA at 200 mM. After removal of the incubation buffer, the wells are washed three times with 300 μl of PBS. The radioactivity is measured on a Wallac MicroBeta1450.
# The inhibition of the Tie2 activity is calculated and expressed as percentage inhibition relative to the control activity determined in the absence of compound.
# [3] = target: T3, human FAK (Homo sapiens, UniProt Q05397); experiment: FAK autophosphorylation time resolved fluorescence assay (HTRF); conditions: 15 μM ATP, 1 hour at 37° C.
# T3 construct: The complete cDNA of human FAK, the N-terminal end of which had been labelled with histidine; made in house; host or cells: baculovirus expression (pFastBac HTc)
# Procedure: Determination of the Activity of the Compounds—Experimental Protocols 1. FAK
# The inhibitory activity of the compounds on FAK is determined by measuring the inhibition of autophosphorylation of the enzyme using a time resolved fluorescence assay (HTRF).
# The complete cDNA of human FAK, the N-terminal end of which had been labelled with histidine, was cloned into a baculovirus expression vector pFastBac HTc. The protein was expressed and purified to approximately 70% homogeneity.
# The kinase activity is determined by incubating the enzyme (6.6 μg/ml) with various concentrations of test compound in a 50 mM Hepes buffer, pH=7.2, containing 10 mM MgCl2, 100 μM Na3VO4, and 15 μM of ATP for 1 hour at 37° C. […] The XL-665-specific long-lasting signal is measured in a Packard Discovery plate counter. All the assays were carried out in duplicate and the mean of the two assays is calculated. The inhibition of the FAK autophosphorylation activity with compounds of the invention is expressed as percentage inhibition relative to a control, the activity of which is measured in the absence of test compound. […]
# T1 sequence (P35968 786-1356 limits assumed): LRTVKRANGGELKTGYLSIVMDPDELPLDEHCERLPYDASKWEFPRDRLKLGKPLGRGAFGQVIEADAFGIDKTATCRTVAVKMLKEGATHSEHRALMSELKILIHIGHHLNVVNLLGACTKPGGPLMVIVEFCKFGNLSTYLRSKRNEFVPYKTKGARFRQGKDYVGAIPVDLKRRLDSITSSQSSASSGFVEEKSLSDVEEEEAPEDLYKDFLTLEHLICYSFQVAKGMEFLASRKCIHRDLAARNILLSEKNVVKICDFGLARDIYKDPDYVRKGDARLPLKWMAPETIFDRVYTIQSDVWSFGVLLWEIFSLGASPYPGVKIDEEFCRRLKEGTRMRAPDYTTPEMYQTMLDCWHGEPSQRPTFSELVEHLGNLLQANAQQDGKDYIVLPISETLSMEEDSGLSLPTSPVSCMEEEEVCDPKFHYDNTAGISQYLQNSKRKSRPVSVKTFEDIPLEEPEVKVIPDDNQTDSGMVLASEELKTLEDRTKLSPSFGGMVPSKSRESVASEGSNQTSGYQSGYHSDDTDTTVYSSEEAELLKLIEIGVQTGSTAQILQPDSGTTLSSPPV
# T2 sequence (Q02763 776-1124): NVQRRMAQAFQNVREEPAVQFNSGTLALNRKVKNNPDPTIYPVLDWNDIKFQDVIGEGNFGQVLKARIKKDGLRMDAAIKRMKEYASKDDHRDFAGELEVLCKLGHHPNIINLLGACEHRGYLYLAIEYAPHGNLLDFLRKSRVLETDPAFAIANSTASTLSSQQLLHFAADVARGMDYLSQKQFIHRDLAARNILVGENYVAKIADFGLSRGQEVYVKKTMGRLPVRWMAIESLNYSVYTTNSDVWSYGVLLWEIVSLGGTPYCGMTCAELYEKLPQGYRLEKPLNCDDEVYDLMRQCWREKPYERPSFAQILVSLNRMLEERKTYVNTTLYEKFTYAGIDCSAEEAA
# T3 sequence (Q05397 whole entry): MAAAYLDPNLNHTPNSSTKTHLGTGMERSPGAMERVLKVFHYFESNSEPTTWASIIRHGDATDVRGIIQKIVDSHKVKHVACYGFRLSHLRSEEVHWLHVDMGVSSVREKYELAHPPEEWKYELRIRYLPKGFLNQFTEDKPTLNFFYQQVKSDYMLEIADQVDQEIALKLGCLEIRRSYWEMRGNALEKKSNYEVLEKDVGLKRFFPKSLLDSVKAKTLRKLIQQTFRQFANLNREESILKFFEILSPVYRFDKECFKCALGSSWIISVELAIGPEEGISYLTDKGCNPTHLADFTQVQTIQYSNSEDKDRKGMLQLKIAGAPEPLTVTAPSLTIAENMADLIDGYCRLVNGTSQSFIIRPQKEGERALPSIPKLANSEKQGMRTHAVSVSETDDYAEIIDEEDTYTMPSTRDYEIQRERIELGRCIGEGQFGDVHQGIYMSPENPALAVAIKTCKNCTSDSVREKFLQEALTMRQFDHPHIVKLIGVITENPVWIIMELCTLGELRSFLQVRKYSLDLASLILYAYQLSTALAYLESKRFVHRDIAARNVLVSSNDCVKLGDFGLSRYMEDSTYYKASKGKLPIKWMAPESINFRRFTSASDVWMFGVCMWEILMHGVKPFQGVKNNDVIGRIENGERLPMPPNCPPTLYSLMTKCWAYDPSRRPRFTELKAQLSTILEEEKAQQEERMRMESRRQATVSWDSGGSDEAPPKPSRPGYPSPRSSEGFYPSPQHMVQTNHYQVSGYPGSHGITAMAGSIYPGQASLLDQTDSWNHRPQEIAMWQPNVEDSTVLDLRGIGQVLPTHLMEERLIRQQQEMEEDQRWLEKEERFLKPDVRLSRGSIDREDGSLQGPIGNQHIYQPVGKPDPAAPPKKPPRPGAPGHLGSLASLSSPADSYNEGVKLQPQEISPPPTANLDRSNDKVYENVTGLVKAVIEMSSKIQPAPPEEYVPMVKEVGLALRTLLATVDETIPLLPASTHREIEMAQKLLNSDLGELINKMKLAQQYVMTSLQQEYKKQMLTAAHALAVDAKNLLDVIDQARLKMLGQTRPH
SMILES,pIC50 [1],pIC50 [2],pIC50 [3]
O=C(Nc1ncc(-c2cc(C(=O)N3CCNCC3)c3cn[nH]c3n2)s1)Nc1cc(C(F)(F)F)ccc1F [Example 16],6.70,8.15,–
"Nc1n[nH]c2nc(-c3ccc(NS(=O)(=O)c4cccc(Cl)c4Cl)cc3)ccc12 [Example 3, N-[4-(3-Amino-1H-pyrazolo[3,4-b]pyridin-6-yl)phenyl]-2,3-dichlorobenzenesulphonamide]",–,7.12,–
CNC(=O)c1cc(-c2ccc(NC(=O)Nc3cc(C(F)(F)F)ccc3F)nc2)nc2[nH]ncc12 [Example 20],–,6.11,–
O=C(Nc1ncc(-c2cc(C(=O)NCCCN3CCCC3CO)c3cn[nH]c3n2)s1)Nc1cc(C(F)(F)F)ccc1F (stereo not shown) [Example 31],6.19,8.05,–
O=C(Nc1ncc(-c2cc(C(=O)N3CCOCC3)c3cn[nH]c3n2)s1)Nc1cc(C(F)(F)F)ccc1F [Example 15],7.15,8.70,–
O=C(Nc1ncc(-c2cc(C(=O)NCCC3CCNCC3)c3cn[nH]c3n2)s1)Nc1cc(C(F)(F)F)ccc1F [Example 24],6.88,8.70,–
CNC(=O)c1cc(-c2ccc(NS(=O)(=O)c3cccc(Cl)c3Cl)cc2)nc2[nH]ncc12 [Example 5],–,7.89,–
CN(C)CC(C)(C)CNC(=O)c1cc(-c2cnc(NC(=O)Nc3cc(C(F)(F)F)ccc3F)s2)nc2[nH]ncc12 [Example 13],6.43,8.40,–
O=C(Nc1cccc(-c2cc(C(=O)NCCN3CCOCC3)c3cn[nH]c3n2)c1)Nc1cc(C(F)(F)F)ccc1F [Example 34],–,5.38,–
O=C(Nc1ccc(C(F)(F)F)cc1)Nc1ncc(-c2cc(C(=O)NCCN3CCOCC3)c3cn[nH]c3n2)s1 [Example 55],5.45,7.06,–
O=C(Nc1ncc(-c2cc(C(=O)NCCO)c3cn[nH]c3n2)s1)Nc1cc(C(F)(F)F)ccc1F [Example 26],6.41,8.52,–
CNC(=O)c1cc(-c2cnc(NC(=O)Nc3cc(C(F)(F)F)ccc3F)s2)nc2[nH]ncc12 [Example 11],6.24,8.10,6.03
CNC(=O)c1cc(-c2cccc(NC(=O)Nc3cc(C(F)(F)F)ccc3F)c2)nc2[nH]ncc12 [Example 33],–,5.57,–
"Nc1n[nH]c2nc(-c3ccc(NC(=O)Nc4cc(C(F)(F)F)ccc4F)cc3)ccc12 [Example 1, 1-[4-(3-Amino-1H-pyrazolo[3,4-b]pyridin-6-yl)phenyl]-3-(2-fluoro-5-trifluoromethylphenyl)urea]",6.92,6.72,–
O=C(Nc1ncc(-c2cc(C(=O)NCCN3CCNCC3)c3cn[nH]c3n2)s1)Nc1cc(C(F)(F)F)ccc1F [Example 23],6.28,8.22,–
O=C(Nc1ccccc1)Nc1ncc(-c2cc(C(=O)NCCN3CCOCC3)c3cn[nH]c3n2)s1 [Example 9],5.17,6.35,–
"O=C(Nc1ccc(-c2ccc3c(NC(=O)c4ccsc4)n[nH]c3n2)cc1)Nc1cc(C(F)(F)F)ccc1F [Example 2, Thiophene-3-carboxylic acid (6-{4-[3-(2-fluoro-5-trifluoromethylphenyl)ureido]phenyl}-1H-pyrazolo[3,4-b]pyridin-3-yl)amide]",8.22,8.15,–
CN(C)CCNC(=O)c1cc(-c2cnc(NC(=O)Nc3cc(C(F)(F)F)ccc3F)s2)nc2[nH]ncc12 [Example 12],5.63,7.52,–
"O=C(Nc1ncc(-c2cc(C(=O)NCCN3CCOCC3)c3cn[nH]c3n2)s1)Nc1cc(C(F)(F)F)ccc1F [Example 4, 6-{2-[3-(2-Fluoro-5-trifluoromethylphenyl)ureido]thiazol-5-yl}-1H-pyrazolo[3,4-b]pyridine-4-carboxylic acid (2-morpholin-4-ylethyl)amide trifluoroacetate]",7.08,9.00,6.46
O=C(Nc1ncc(-c2cc(C(=O)NCCCN3CCOCC3)c3cn[nH]c3n2)s1)Nc1cc(C(F)(F)F)ccc1F [Example 22],6.29,8.40,–
O=C(Nc1ncc(-c2cc(C(=O)NCc3ccccn3)c3cn[nH]c3n2)s1)Nc1cc(C(F)(F)F)ccc1F [Example 29],6.80,8.52,–
O=C(Nc1ncc(-c2cc(C(=O)NCc3ccncc3)c3cn[nH]c3n2)s1)Nc1cc(C(F)(F)F)ccc1F [Example 28],5.33,6.98,–
CN1CCN(C(=O)c2cc(-c3cnc(NC(=O)Nc4cc(C(F)(F)F)ccc4F)s3)nc3[nH]ncc23)CC1 [Example 17],7.34,9.00,–
O=C(Nc1ncc(-c2cc(C(=O)NCCc3cnc[nH]3)c3cn[nH]c3n2)s1)Nc1cc(C(F)(F)F)ccc1F [Example 14],6.53,8.15,–
O=C(Nc1ccc(-c2cc(C(=O)NCCN3CCOCC3)c3cn[nH]c3n2)cn1)Nc1cc(C(F)(F)F)ccc1F [Example 21],–,5.22,–
